# Target: T1, human estrogen receptor beta (Homo sapiens, UniProt Q92731)
# T1 construct: expressed in transfected cells; host or cells: HEK293 (CRL-1573)
# Experiment: Transactivation Assay 2 in human embryonic kidney 293 cells stably transfected with pERE2-ALP and human estrogen receptor beta
# Assay type: cell-based
# Conditions: read-out: potency at the estrogen receptor β-subtype, EC50
# Method: Transactivation Assay 2: Transactivation Assay in Human Embryonic Kidney 293 Cells Stably Transfected with pERE2-ALP and Human Estrogen Receptor Beta
# Generation of stable HEK293 cell lines (CRL-1573; American Type Culture Collection) expressing the reporter vector pERE2-ALP and human estrogen receptor beta (hERβ 530) have been described (Mol Pharmacol 1998, 54, 105-112; Endocrinology 2002, 143, 1558-1561).
# The cells were seeded in 384-well plates at 12 500 cells per well in Ham's F12 Coon's modification (without phenol red) with 10% dextran-coated charcoal treated (DCC) fetal bovine serum (FBS), 2 mM L-glutamine and 50 μg/ml gentamicin. After 24 h incubation (37° C., 5% CO2) the seeding medium was discarded and replaced with 20 μl Ham's F12 Coon's modification (without phenol red) with 1.5% DCC-FCS, 2 mM L-glutamine and supplemented with 100 U/ml penicillin and 100 μg/ml streptomycin. The selected compounds were added to the wells in 12 concentrations ranging from […] to 33 μM. The compounds were dissolved in 100% dimethylsulfoxide (DMSO) and the final concentration of DMSO in the assay was 0.1%. After 72 h incubation (37° C., 5% CO2) the medium was assayed for ALP activity by a chemiluminescence assay; a 10 μl aliquot of the conditioned medium was mixed with 100 μl assay buffer (0.1 M diethanolamine, 1 mM MgC12) and 0.5 mM disodium 3-(4-methoxyspiro 1,2-dioxetane-3,2′-(5′-chloro)-tricyclo[3.3.1.13,7]decan-4-yl)phenyl phosphate (CSPD) (Tropix, Applied Biosystems) and incubated for 20 min at 37° C. and 15 min at room temperature before measurement of the chemiluminescent signal (one second per well) in a Wallac Microbeta Trilux 1450-028 (PerkinElmer). The ALP activity expressed in LCPS is directly proportional to the level of ALP expressed by the cells. The half maximal effective concentrations of the test compounds (EC50) were calculated from the curves fitted to the concentration-response data with a four parameter logistic model in XLfit software version 2.0 (IDBS) or later.
# T1 sequence (Q92731 whole entry): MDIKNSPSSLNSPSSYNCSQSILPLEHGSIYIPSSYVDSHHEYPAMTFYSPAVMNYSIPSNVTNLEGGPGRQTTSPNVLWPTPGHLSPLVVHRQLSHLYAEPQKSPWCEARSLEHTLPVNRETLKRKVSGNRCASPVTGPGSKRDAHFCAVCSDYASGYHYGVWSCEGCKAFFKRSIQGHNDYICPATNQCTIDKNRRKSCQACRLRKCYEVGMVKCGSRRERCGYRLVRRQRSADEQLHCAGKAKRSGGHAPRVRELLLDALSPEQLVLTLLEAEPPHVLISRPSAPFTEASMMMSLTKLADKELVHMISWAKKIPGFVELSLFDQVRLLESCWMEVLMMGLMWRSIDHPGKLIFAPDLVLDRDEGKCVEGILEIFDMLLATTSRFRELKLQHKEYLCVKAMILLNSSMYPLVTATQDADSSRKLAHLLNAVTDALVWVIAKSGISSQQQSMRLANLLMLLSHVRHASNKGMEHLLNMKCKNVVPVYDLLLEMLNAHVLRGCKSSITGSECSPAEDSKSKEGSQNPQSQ
row,SMILES,EC50 [nM]
1,"Cc1noc(C)c1-c1c(-c2cc(F)c(O)cc2F)c2ccccc2n1C(N)=NO [Example 19, 3-(2,5-difluoro-4-hydroxyphenyl)-2-(3,5-dimethylisoxazol-4-yl)-N′-hydroxy-1H-indole-1-carboximidamide]",0.1 to 10
2,"Cc1noc(C)c1-c1c(-c2cc(F)c(O)c(F)c2)c2ccccc2n1C(N)=NO [Example 16, 3-(3,5-difluoro-4-hydroxyphenyl)-2-(3,5-dimethylisoxazol-4-yl)-N′-hydroxy-1H-indole-1-carboximidamide]",0.1 to 10
3,"CCNC(=O)n1c(-c2c(C)noc2C)c(-c2ccc(O)cc2)c2ccccc21 [Example 8, 2-(3,5-dimethylisoxazol-4-yl)-N-ethyl-3-(4-hydroxyphenyl)-1H-indole-1-carboxamide]",0.1 to 10
4,"Cc1csc(C)c1-c1c(-c2ccc(O)cc2)c2cc(Cl)ccc2n1C(N)=NO [Example 21, 5-chloro-2-(2,4-dimethylthiophen-3-yl)-N′-hydroxy-3-(4-hydroxyphenyl)-1H-indole-1-carboximidamide]",0.1 to 10
5,"Cc1noc(C)c1-c1c(-c2ccc(O)cc2)c2ccccc2n1S(C)(=O)=O [Example 6, 4-(2-(3,5-dimethylisoxazol-4-yl)-1-(methylsulfonyl)-1H-indol-3-yl)phenol]",0.1 to 10
6,"Cc1csc(C)c1-c1c(-c2ccc(O)cc2)c2ccccc2n1C(N)=O [Example 11, 2-(2,4-dimethylthiophen-3-yl)-3-(4-hydroxyphenyl)-1H-indole-1-carboxamide]",0.1 to 10
7,"Cc1csc(C)c1-c1c(-c2ccc(O)cc2)c2ccccc2n1C(N)=NO [Example 10, 2-(2,4-dimethylthiophen-3-yl)-N′-hydroxy-3-(4-hydroxyphenyl)-1H-indole-1-carboximidamide]",0.1 to 10
8,"Cc1noc(C)c1-c1c(-c2ccc(O)c(F)c2)c2ccccc2n1C(N)=NO [Example 20, 2-(3,5-dimethylisoxazol-4-yl)-3-(3-fluoro-4-hydroxyphenyl)-N′-hydroxy-1H-indole-1-carboximidamide]",0.1 to 10
9,"Cc1cccc(C)c1-c1c(-c2ccc(O)cc2)c2ccccc2n1C(N)=NO [Example 12, 2-(2,6-dimethylphenyl)-N′-hydroxy-3-(4-hydroxyphenyl)-1H-indole-1-carboximidamide]",0.1 to 10
10,"Cc1noc(C)c1-c1c(-c2ccc(O)cc2)c2ccccc2n1C(N)=O [Example 3, 2-(3,5-dimethylisoxazol-4-yl)-3-(4-hydroxyphenyl)-1H-indole-1-carboxamide]",0.1 to 10
11,"Cc1noc(C)c1-c1c(-c2ccc(O)cc2)c2ccccc2n1C=NO [Example 5, 2-(3,5-dimethylisoxazol-4-yl)-3-(4-hydroxyphenyl)-1H-indole-1-carbaldehyde oxime]",0.1 to 10
12,"Cc1nsc(C)c1-c1c(-c2ccc(O)cc2)c2ccccc2n1C(N)=NO [Example 24, 2-(3,5-dimethylisothiazol-4-yl)-N′-hydroxy-3-(4-hydroxyphenyl)-1H-indole-1-carboximidamide]",0.1 to 10

# Further lines, results first:
row,EC50 [nM],SMILES
1,0.1 to 10,"Cc1noc(C)c1-c1c(-c2ccc(O)cc2F)c2ccccc2n1C(N)=NO [Example 18, 2-(3,5-dimethylisoxazol-4-yl)-3-(2-fluoro-4-hydroxyphenyl)-N′-hydroxy-1H-indole-1-carboximidamide]"
2,0.1 to 10,"Cc1coc(C)c1-c1c(-c2ccc(O)cc2)c2ccccc2n1C(N)=NO [Example 23, 2-(2,4-dimethylfuran-3-yl)-N′-hydroxy-3-(4-hydroxyphenyl)-1H-indole-1-carboximidamide]"
3,0.1 to 10,"CC=C(C)c1c(-c2ccc(O)cc2)c2ccccc2n1C(N)=NO (stereo in doubt) [Example 7, 2-((E)-but-2-en-2-yl)-N′-hydroxy-3-(4-hydroxyphenyl)-1H-indole-1-carboximidamide]"
4,0.1 to 10,"Cc1noc(C)c1-c1c(-c2ccc(O)cc2)c2cc(Cl)ccc2n1C(N)=NO [Example 22, 5-chloro-2-(3,5-dimethylisoxazol-4-yl)-N′-hydroxy-3-(4-hydroxyphenyl)-1H-indole-1-carboximidamide]"
5,0.1 to 10,"Cc1noc(C)c1-c1c(-c2ccc(O)cc2)c2ccccc2n1C(N)=NO [Example 2, 2-(3,5-dimethylisoxazol-4-yl)-N′-hydroxy-3-(4-hydroxyphenyl)-1H-indole-1-carboximidamide]"

# From US8710243B2, “Estrogen receptor ligands” (Karo Bio AB, priority 2009, dated 2014)
